# Results as given in patent publication US20230391768A2, “IMIDAZOPYRIDINE DERIVATIVES AND AZA-IMIDAZOPYRIDINE DERIVATIVES AS JANUS KINASE 2 INHIBITORS AND USES THEREOF” (Dana-Farber Cancer Institute, Inc., priority 2018, published 2023).
# Columns and labels:
# Experiment in all cases: KINOMEscan
# Type in all cases: binding
# Details in all cases: read-out: percent of control
# CSNK2A1 = CSNK2A1 (Homo sapiens (Human), UniProt P68400)
# Method: (§1) In vitro profiling of Compound I-2 (1 μM) was performed using the DiscoveRx KINOMEscan® platform.
# FLT1 = FLT1 (Homo sapiens (Human), UniProt P17948)
# Method: as §1
# AURKB = AURKB (Homo sapiens (Human), UniProt Q96GD4)
# Method: as §1
# YES = YES (Homo sapiens (Human), UniProt P07947)
# Method: as §1
# SRMS = SRMS (Homo sapiens (Human), UniProt Q9H3Y6)
# Chain of SRMS (Q9H3Y6 whole entry): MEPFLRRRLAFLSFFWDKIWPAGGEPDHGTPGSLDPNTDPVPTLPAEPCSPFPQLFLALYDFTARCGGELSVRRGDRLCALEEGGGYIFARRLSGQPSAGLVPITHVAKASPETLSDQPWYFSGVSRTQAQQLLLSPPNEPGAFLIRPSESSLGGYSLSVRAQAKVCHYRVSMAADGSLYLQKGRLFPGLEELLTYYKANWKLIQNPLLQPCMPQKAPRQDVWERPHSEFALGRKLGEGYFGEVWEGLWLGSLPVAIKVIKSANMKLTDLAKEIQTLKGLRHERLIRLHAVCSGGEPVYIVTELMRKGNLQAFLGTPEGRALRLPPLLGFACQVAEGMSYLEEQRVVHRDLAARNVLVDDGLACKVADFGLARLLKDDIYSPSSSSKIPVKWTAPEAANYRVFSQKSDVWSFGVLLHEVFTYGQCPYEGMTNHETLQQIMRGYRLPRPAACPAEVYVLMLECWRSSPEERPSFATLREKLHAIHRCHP
# Method: as §1
# EGFR(L861Q) = EGFR(L861Q) (Homo sapiens (Human), UniProt P00533, L861Q)
# Method: as §1
# PIK3CA(E545A) = PIK3CA(E545A) (Homo sapiens (Human), UniProt P42336, E545A)
# Chain of PIK3CA(E545A) (P42336 whole entry E545A): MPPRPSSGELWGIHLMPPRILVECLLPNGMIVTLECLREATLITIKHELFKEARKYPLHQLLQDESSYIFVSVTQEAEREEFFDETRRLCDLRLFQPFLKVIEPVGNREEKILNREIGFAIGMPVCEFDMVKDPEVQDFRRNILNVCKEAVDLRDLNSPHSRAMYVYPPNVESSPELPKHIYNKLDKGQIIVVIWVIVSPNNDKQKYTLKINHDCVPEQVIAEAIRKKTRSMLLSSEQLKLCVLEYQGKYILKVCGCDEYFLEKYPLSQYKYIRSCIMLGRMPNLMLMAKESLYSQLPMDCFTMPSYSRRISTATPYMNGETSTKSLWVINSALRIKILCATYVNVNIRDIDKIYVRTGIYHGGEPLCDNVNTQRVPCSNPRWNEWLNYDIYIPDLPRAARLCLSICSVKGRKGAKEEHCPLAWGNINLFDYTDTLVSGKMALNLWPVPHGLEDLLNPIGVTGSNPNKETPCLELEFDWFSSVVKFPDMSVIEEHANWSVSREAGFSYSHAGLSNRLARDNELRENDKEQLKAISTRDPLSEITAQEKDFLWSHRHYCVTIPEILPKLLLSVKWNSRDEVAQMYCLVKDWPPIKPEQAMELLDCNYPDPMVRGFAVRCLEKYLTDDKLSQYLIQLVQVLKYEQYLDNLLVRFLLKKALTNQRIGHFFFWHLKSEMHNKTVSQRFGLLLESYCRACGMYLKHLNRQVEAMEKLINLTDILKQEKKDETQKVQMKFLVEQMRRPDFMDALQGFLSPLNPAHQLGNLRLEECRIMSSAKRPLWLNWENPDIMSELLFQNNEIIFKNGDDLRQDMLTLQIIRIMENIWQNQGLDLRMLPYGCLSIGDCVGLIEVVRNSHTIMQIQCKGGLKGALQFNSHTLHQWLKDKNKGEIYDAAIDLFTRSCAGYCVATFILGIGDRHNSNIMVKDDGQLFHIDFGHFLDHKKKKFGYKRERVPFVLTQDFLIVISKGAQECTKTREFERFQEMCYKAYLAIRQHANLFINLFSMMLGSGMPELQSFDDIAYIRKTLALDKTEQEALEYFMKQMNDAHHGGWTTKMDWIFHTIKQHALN
# Method: as §1
# LYN = LYN (Homo sapiens (Human), UniProt P07948)
# Method: as §1
# [1] = target: RPS6KA5 (Kin.Dom.2-C-terminal) (Homo sapiens (Human), UniProt O75582)
# Method: as §1
# EGFR(E746-A750del) = EGFR(E746-A750del) (Homo sapiens (Human), UniProt P00533, DEL746-750)
# Method: as §1
# GRK1 = GRK1 (Homo sapiens (Human), UniProt Q15835)
# Method: as §1
# [2] = target: RPS6KA5 (Kin.Dom.1-N-terminal) (Homo sapiens (Human), UniProt O75582)
# Chain of RPS6KA5 (Kin.Dom.1-N-terminal) (O75582 49-318): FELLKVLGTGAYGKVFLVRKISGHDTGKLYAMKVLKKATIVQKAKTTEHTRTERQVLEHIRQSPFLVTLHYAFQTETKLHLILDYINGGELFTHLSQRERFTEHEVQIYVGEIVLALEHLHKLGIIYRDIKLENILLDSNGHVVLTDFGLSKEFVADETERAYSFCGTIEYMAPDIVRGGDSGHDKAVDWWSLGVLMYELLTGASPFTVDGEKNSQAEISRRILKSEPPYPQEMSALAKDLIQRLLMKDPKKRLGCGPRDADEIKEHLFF
# Method: as §1
# VEGFR2 = VEGFR2 (Homo sapiens (Human), UniProt P35968)
# Chain of VEGFR2 (P35968 20-1356): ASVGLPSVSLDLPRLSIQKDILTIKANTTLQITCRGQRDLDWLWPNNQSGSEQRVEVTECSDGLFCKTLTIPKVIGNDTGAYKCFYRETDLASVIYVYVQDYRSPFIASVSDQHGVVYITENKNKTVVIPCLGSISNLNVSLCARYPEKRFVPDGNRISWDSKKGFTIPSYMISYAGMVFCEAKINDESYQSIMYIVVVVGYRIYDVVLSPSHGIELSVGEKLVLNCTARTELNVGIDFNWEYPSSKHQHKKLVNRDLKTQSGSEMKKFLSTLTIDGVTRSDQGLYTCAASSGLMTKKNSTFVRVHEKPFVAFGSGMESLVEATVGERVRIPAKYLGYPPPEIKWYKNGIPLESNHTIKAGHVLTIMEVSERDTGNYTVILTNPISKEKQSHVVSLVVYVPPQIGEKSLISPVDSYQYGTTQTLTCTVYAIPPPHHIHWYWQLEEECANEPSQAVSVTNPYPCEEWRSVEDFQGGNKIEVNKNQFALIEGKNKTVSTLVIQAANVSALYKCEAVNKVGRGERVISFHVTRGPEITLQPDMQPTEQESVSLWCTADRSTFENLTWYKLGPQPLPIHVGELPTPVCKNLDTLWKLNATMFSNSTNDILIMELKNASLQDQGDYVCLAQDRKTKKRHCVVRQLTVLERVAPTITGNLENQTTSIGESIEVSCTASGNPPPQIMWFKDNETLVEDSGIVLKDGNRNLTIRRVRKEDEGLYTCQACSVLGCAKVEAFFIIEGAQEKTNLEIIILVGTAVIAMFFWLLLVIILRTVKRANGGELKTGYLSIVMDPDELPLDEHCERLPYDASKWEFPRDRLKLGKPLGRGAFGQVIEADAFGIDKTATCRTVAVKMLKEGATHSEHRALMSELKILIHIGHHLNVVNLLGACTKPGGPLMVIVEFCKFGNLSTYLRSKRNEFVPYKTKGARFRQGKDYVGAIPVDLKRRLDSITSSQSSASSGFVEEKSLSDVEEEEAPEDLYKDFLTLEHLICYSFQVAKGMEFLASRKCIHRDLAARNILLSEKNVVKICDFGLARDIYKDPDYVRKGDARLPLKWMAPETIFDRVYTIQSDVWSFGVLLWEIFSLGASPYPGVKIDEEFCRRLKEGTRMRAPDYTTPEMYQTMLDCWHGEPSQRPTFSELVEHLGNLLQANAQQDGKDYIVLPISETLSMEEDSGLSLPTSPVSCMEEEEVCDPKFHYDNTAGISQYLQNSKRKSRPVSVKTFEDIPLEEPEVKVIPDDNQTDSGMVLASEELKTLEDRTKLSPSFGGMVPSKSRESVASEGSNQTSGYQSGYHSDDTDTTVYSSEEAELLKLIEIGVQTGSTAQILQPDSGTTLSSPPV
# Method: as §1
# [3] = target: ABL1(E255K)-phosphorylated (Homo sapiens (Human), UniProt P00519, E255K)
# Chain of ABL1(E255K)-phosphorylated (P00519 whole entry E255K): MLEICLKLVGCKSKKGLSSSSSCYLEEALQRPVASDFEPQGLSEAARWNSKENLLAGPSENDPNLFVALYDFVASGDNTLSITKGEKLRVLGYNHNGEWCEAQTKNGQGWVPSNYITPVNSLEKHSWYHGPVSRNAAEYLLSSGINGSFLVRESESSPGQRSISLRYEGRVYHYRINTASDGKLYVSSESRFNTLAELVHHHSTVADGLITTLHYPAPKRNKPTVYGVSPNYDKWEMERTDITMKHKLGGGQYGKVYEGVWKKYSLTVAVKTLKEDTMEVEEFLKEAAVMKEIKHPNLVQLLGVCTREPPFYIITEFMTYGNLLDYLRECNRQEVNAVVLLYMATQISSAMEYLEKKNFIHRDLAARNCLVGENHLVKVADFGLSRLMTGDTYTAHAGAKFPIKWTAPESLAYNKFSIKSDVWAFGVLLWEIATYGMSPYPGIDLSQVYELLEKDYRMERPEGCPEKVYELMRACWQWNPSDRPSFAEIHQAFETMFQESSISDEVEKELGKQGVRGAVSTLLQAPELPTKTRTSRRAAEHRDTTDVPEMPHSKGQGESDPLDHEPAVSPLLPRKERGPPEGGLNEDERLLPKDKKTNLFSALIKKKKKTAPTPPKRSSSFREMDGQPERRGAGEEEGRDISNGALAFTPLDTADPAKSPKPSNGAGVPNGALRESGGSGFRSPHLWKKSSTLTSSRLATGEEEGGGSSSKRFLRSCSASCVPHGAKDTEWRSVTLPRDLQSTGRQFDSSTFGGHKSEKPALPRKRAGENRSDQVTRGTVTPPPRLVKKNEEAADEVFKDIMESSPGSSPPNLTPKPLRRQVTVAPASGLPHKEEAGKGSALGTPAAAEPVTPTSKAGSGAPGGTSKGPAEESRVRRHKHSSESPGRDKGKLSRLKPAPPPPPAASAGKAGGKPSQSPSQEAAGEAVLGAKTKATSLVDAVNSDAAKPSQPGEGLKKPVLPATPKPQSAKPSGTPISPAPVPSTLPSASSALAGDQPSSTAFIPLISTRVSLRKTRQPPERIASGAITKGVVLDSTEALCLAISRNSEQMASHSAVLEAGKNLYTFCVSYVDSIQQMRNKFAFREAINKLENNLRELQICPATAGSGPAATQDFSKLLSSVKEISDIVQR
# Method: as §1
# MRCKA = MRCKA (Homo sapiens (Human), UniProt Q5VT25)
# Method: as §1
# PRKCQ = PRKCQ (Homo sapiens (Human), UniProt Q04759)
# Chain of PRKCQ (Q04759 whole entry): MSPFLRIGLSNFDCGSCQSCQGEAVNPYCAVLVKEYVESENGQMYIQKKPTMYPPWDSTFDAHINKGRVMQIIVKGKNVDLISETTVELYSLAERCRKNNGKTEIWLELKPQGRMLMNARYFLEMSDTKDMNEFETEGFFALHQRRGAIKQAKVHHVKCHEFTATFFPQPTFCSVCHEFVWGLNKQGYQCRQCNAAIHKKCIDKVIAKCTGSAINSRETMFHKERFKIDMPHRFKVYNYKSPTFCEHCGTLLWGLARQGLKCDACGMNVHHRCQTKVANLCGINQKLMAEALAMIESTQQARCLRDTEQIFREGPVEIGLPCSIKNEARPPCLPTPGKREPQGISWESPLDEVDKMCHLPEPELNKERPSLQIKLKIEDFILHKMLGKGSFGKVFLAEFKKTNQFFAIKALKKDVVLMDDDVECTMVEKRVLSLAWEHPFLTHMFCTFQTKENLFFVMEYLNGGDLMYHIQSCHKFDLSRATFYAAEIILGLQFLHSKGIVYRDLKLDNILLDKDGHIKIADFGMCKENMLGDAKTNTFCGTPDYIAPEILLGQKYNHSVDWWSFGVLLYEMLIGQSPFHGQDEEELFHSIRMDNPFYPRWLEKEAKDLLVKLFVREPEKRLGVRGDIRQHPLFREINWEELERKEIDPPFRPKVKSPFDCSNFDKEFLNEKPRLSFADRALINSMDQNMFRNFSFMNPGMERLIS
# Method: as §1
# DAPK3 = DAPK3 (Homo sapiens (Human), UniProt O43293)
# Method: as §1
# CHEK2 = CHEK2 (Homo sapiens (Human), UniProt O96017)
# Method: as §1
# KIT(V559D) = KIT(V559D) (Homo sapiens (Human), UniProt P10721, V559D)
# Method: as §1
# MARK3 = MARK3 (Homo sapiens (Human), UniProt P27448)
# Method: as §1
# [4] = target: RPS6KA4 (Kin.Dom.1-N-terminal) (Homo sapiens (Human), UniProt O75676)
# Method: as §1
# SLK = SLK (Homo sapiens (Human), UniProt Q9H2G2)
# Method: as §1
# DCAMKL1 = DCAMKL1 (Homo sapiens (Human), UniProt O15075)
# Method: as §1
# MLK3 = MLK3 (Homo sapiens (Human), UniProt Q16584)
# Method: as §1
# TAOK1 = TAOK1 (Homo sapiens (Human), UniProt Q7L7X3)
# Method: as §1
# PKMYT1 = PKMYT1 (Homo sapiens (Human), UniProt Q99640)
# Method: as §1
# MKK7 = MKK7 (Homo sapiens (Human), UniProt O14733)
# Method: as §1
# KIT(D816V) = KIT(D816V) (Homo sapiens (Human), UniProt P10721, D816V)
# Method: as §1
# [5] = target: RSK1 (Kin.Dom.1-N-terminal) (Homo sapiens (Human), UniProt Q15418)
# Method: as §1
# BUB1 = BUB1 (Homo sapiens (Human), UniProt O43683)
# Method: as §1
# EGFR = EGFR (Homo sapiens (Human), UniProt P00533)
# Method: as §1
# STK33 = STK33 (Homo sapiens (Human), UniProt Q9BYT3)
# Method: as §1
# PIM2 = PIM2 (Homo sapiens (Human), UniProt Q9P1W9)
# Method: as §1
# MRCKB = MRCKB (Homo sapiens (Human), UniProt Q9Y5S2)
# Method: as §1
# IRAK4 = IRAK4 (Homo sapiens (Human), UniProt Q9NWZ3)
# Method: as §1
# MET(M1250T) = MET(M1250T) (Homo sapiens (Human), UniProt P08581, M1250T)
# Method: as §1
# PLK4 = PLK4 (Homo sapiens (Human), UniProt O00444)
# Method: as §1
# CSNK1D = CSNK1D (Homo sapiens (Human), UniProt P48730)
# Method: as §1
SMILES,remaining binding at 1 µM (CSNK2A1),remaining binding at 1 µM (FLT1),remaining binding at 1 µM (AURKB),remaining binding at 1 µM (YES),remaining binding at 1 µM (SRMS),remaining binding at 1 µM (EGFR(L861Q)),remaining binding at 1 µM (PIK3CA(E545A)),remaining binding at 1 µM (LYN),remaining binding at 1 µM [1],remaining binding at 1 µM (EGFR(E746-A750del)),remaining binding at 1 µM (GRK1),remaining binding at 1 µM [2],remaining binding at 1 µM (VEGFR2),remaining binding at 1 µM [3],remaining binding at 1 µM (MRCKA),remaining binding at 1 µM (PRKCQ),remaining binding at 1 µM (DAPK3),remaining binding at 1 µM (CHEK2),remaining binding at 1 µM (KIT(V559D)),remaining binding at 1 µM (MARK3),further results
"CCN1CCN(Cc2cc(NC(=O)c3ccc(C)c(-c4ccc5nc(NC(=O)C6CC6)cn5n4)c3)cc(C(F)(F)F)c2)CC1 [Compound I-2, 3-(2-(cyclopropanecarboxamido)imidazo[1,2-b]pyridazin-6-yl)-N-(3-((4-ethylpiperazin-1-yl)methyl)-5-(trifluoromethyl)phenyl)-4-methylbenzamide]",98%,3.2%,97%,4.7%,86%,82%,91%,0.55%,100%,29%,91%,73%,1.4%,0.5%,91%,27%,93%,90%,0%,94%,remaining binding at 1 µM [4]: 50%; remaining binding at 1 µM (SLK): 1.6%; remaining binding at 1 µM (DCAMKL1): 90%; remaining binding at 1 µM (MLK3): 76%; remaining binding at 1 µM (TAOK1): 3.9%; remaining binding at 1 µM (PKMYT1): 100%; remaining binding at 1 µM (MKK7): 84%; remaining binding at 1 µM (KIT(D816V)): 32%; remaining binding at 1 µM [5]: 97%; remaining binding at 1 µM (BUB1): 100%; remaining binding at 1 µM (EGFR): 31%; remaining binding at 1 µM (STK33): 70%; remaining binding at 1 µM (PIM2): 96%; remaining binding at 1 µM (MRCKB): 100%; remaining binding at 1 µM (IRAK4): 26%; remaining binding at 1 µM (MET(M1250T)): 9.9%; remaining binding at 1 µM (PLK4): 81%; remaining binding at 1 µM (CSNK1D): 100%
"CCN1CCN(Cc2cc(NC(=O)c3ccc(C)c(-c4ccc5nc(NC(=O)C6CC6)cn5c4)c3)cc(C(F)(F)F)c2)CC1 [Compound I-6, 3-(2-(cyclopropanecarboxamido)imidazo[1,2-a]pyridin-6-yl)-N-(3-((4-ethylpiperazin-1-yl)methyl)-5-(trifluoromethyl)phenyl)-4-methylbenzamide]",100%,3.2%,80%,1.6%,79%,54%,100%,0.6%,98%,25%,93%,66%,2%,0.65%,100%,74%,100%,93%,0.05%,95%,remaining binding at 1 µM [4]: 66%; remaining binding at 1 µM (SLK): 2.4%; remaining binding at 1 µM (DCAMKL1): 84%; remaining binding at 1 µM (MLK3): 82%; remaining binding at 1 µM (TAOK1): 4.5%; remaining binding at 1 µM (PKMYT1): 100%; remaining binding at 1 µM (MKK7): 100%; remaining binding at 1 µM (KIT(D816V)): 22%; remaining binding at 1 µM [5]: 100%; remaining binding at 1 µM (BUB1): 97%; remaining binding at 1 µM (EGFR): 24%; remaining binding at 1 µM (STK33): 100%; remaining binding at 1 µM (PIM2): 97%; remaining binding at 1 µM (MRCKB): 100%; remaining binding at 1 µM (IRAK4): 33%; remaining binding at 1 µM (MET(M1250T)): 42%; remaining binding at 1 µM (PLK4): 95%; remaining binding at 1 µM (CSNK1D): 100%
